Experiment [1] has as its system estrogen responsive element/promoter/luciferase reporter gene. Put plainly: ERE Luciferase Assay in T47D-KBluc cells. Type of experiment: cell-based, human. The following applies: Homo sapiens, 24 hours, luciferase activity, read-out: Target Engagement IC50. How it is done: 1. ERE Luciferase Assay for Compounds in Table 5.
T47D-KBluc cells (ATCC® #CRL_2865, T47D human breast cancer cells stably transfected with estrogen responsive element/promoter/luciferase reporter gene) were seeded into 96-well white opaque plates in RPMI growth medium supplemented with 10% fetal bovine serum (FBS) and allowed to adhere overnight in a 37° C. humidified incubator. The following day, cells were treated with PROTACs in a 12-point concentration curve (top final concentration of 300 nM with subsequent concentrations being 3-fold less with 2 pM being the lowest concentration in the assay). Each PROTAC was tested independently in two experiments on 96-well plates. After 24 hours, media was removed and lysis buffer was added to the wells. Following lysis, Bright-Glo™ Luciferase Assay Substrate (Promega, Madison WI) was added and the luciferase activity was measured using a Cytation 3 plate reader (BioTek™, Winooski, VT). Each compound was assayed in duplicate and the activity was calculated as IC50 using GraphPad Prism software (San Diego, CA).

Experiment [2] addresses T1, Estrogen Receptor-Alpha (ERα) (Homo sapiens, UniProt P03372).
T1 construct: endogenous in cells; host or cells: MCF-7 (MCF7) cells
T1 sequence (P03372 1-595): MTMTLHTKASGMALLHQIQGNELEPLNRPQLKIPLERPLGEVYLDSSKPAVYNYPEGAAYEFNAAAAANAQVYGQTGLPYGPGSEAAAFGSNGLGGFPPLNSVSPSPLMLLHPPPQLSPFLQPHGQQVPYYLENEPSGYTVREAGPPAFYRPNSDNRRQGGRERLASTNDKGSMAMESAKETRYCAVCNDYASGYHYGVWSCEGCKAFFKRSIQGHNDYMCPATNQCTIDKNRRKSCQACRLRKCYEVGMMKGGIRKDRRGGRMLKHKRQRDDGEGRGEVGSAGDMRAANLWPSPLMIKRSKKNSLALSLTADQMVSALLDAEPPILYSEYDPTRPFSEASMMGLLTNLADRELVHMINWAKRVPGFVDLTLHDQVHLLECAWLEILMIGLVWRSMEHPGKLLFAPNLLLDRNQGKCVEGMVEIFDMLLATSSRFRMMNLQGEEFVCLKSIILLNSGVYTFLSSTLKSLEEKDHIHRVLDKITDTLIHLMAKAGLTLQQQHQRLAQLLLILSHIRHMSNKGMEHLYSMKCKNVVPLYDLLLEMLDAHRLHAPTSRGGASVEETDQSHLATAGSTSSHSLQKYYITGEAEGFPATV
Put plainly: Estrogen Receptor-Alpha (ERα) degradation assay in MCF-7 cells (western blot / In-Cell Western). The following applies: for Dmax: MCF7, read-out: ER Dmax; for DC50: read-out: ER DC50. Type of experiment: cell-based. How it is done: 2. Estrogen Receptor-Alpha (ERα) Degradation Assay in MCF-7 Cells Using Western Blot Method for Table 5.
The exemplary novel ERα degraders were assessed for their activity in degrading ERα in MCF-7 cells via western blot. The assay was carried out in the presence of 10% FBS or high percentage of human or mouse serum. Protocols of the western blot assay are described below.
MCF7 cells were grown in DMEM/F12 with 10% FBS and seeded at 24,000 cells per well in 100 μl into 96-well clear tissue culture plates. The following day, the cells were treated with PROTACs in a […] concentration curve with 100 nM being the top concentration and serial dilutions to make the other concentrations (30 nM, 10 nM, 3 nM, 1 nM, and 0.3 nM). At all concentrations, 0.01% DMSO is the final concentration in the well. The following day, the plates are aspirated, washed with 50 μl of cold PBS. The cells are lysed with 50 μl/well 4° C. Cell Lysis Buffer (Catalog #9803; Cell Signaling Technology, Danvers, MA) (20 mM Tris-HCL (pH 7.5), 150 mM NaCl, 1 mM Na2EDTA, 1 mM EGTA, 1% Triton, 2.5 mM sodium pyrophosphate, 1 mM B-glycerophosphate, 1 mM sodium vanadate, 1 ug/ml leupeptin). Lysates were clarified at 16,000×g for 10 minutes, and 2 μg of protein was subjected to SDS-PAGE analysis and followed by immunoblotting according to standard protocols. The antibodies used were ERα (Cell Signaling Technologies Catalog #8644), and Tubulin (Sigma Catalog #T9026; St. Louis, MO). Detection reagents were Clarity Western ECL substrate (Bio-Rad Catalog #170-5060; Hercules, CA).
Alternatively, MCF7 cells were grown in DMEM/F12 with 10% FBS and seeded at 24,000 cells per well in 500 μl in 24-well clear tissue culture plates. The following day, the cells were treated with PROTACs in a 5-point concentration curve (100 nM, 33 nM, 11 nM, 3.7 nM, and 1.2 nM) in the presence of 0.01% DMSO. After 72 hours, the wells are aspirated and washed with 500 μl of PBS. The cells are lysed with 100 μl/well 4° C. Cell Lysis Buffer (Catalog #9803; Cell Signaling Technology, Danvers, MA) (20 mM Tris-HCL (pH 7.5), 150 mM NaCl, 1 mM Na2EDTA, 1 mM EGTA, 1% Triton, 2.5 mM sodium pyrophosphate, 1 mM B-glycerophosphate, 1 mM sodium vanadate, 1 ug/ml leupeptin). Lysates were clarified at 16,000×g for 10 minutes, and 2 μg of protein was subjected to SDS-PAGE analysis and followed by immunoblotting according to standard protocols. The antibodies used were ERα (Cell Signaling Technologies Catalog #8644), and Tubulin (Sigma Catalog #T9026; St. Louis, MO). Detection reagents were Clarity Western ECL substrate (Bio-Rad Catalog #170-5060; Hercules, CA).
3. Estrogen Receptor-Alpha (ERα) Degradation Assay Using In-Cell Western™ Assay for Table 5.
Degradation of ERα by claimed compounds were determined in MCF7 cells using an In-Cell Western™ assay. Briefly, MCF7 cells were plated in 96-well plates (2000 cells per well in 100 μl media) and incubated at 37° C. under an atmosphere of 5% CO2 in a humidified incubator overnight. One-hundred (100) μl of media containing test compound (at 2× concentration) was added to the appropriate wells to provide 11 serially decreasing concentrations (top final concentration, 1 μM then 3-fold less for the next 10 concentrations); a vehicle control (DMSO) was also added for each compound. For each experiment, all compounds were assayed in duplicate plates. Cells were then incubated for 3 or 5 days in the above-mentioned environment. The assay was terminated by removal of media, a single wash with ice-cold PBS and the addition of 50 μl paraformaldehyde (PFA: 4% in PBS). After 15 minutes in PFA at room temperature, the cells were permeabilized in Tris-phosphate-buffered saline with Tween (0.1%) (TBST) supplemented with Triton X-100 (0.5%) for 15 minutes. Cells were then blocked in BSA (TBST with BSA, 3%) for one hour. […]
(In western blotting, separated proteins are transferred to a membrane and probed.)

Molecules are shown by their SMILES. Bounds are passed on as bounds.

The IC50 is the concentration at which inhibition is half-maximal. As a reminder, the Dmax is the greatest extent of degradation seen. By DC50 is commonly meant the midpoint of the concentration-degradation curve. Take `COc1cc(N2CCN(CCCCCOc3ccc([C@H]4c5ccc(O)cc5CC[C@H]4c4ccccc4)cc3)CC2)cc2c1C(=O)N(C1CCC(=O)NC1=O)C2` (stereo partly drawn) [compound 1, 3-{5-[4-(5-{4-[(1S,2R)-6-hydroxy-2-phenyl-1,2,3,4-tetrahydronaphthalen-1-yl]phenoxy}pentyl)piperazin-1-yl]-7-methoxy-1-oxo-2,3-dihydro-1H-isoindol-2-yl}piperidine-2,6-dione]: in experiment [1], the concentration for half-maximal inhibition (IC50) came out at 58.2 nM. For the same compound, in experiment [2], the Dmax was in the range of 50 to 75% and the 50% degradation concentration (DC50) lay within 10 to 100 nM.

`COc1cc(N2CCN(CCCCCOc3ccc([C@@H]4c5ccc(O)cc5CC[C@@H]4c4ccccc4)cc3)CC2)cc2c1C(=O)N(C1CCC(=O)NC1=O)C2` (stereo partly drawn) [compound 2, 3-(5-(4-(5-(4-((1R,2S)-6-hydroxy-2-phenyl-1,2,3,4-tetrahydronaphthalen-1-yl)phenoxy)pentyl)piperazin-1-yl)-7-methoxy-1-oxoisoindolin-2-yl)piperidine-2,6-dione]: in experiment [1], the IC50 was 0.79 nM. Besides, in experiment [2], the Dmax is no less than 75% and the 50% degradation concentration (DC50) was 1 to 10 nM.

Turning to `COc1c(N2CCN(CCCCCOc3ccc([C@@H]4c5ccc(O)cc5CC[C@@H]4c4ccccc4)cc3)CC2)ccc2c1CN(C1CCC(=O)NC1=O)C2=O` (stereo partly drawn) [compound 3, 3-[5-[4-[5-[4-[(1R,2S)-6-hydroxy-2-phenyl-tetralin-1-yl]phenoxy]pentyl]piperazin-1-yl]-4-methoxy-1-oxo-isoindolin-2-yl]piperidine-2,6-dione], the half-inhibitory concentration (IC50) in experiment [1] is 1.35 nM. Besides, in experiment [2], the maximal degradation (Dmax) was no less than 75% and the DC50 was less than 1 nM.

Take `COCCOCCOc1c(N2CCN(CCCCCOc3ccc([C@@H]4c5ccc(O)cc5CC[C@@H]4c4ccccc4)cc3)CC2)ccc2c1CN(C1CCC(=O)NC1=O)C2=O` (stereo partly drawn) [compound 4, 3-[5-[4-[5-[4-[(1R,2S)-6-hydroxy-2-phenyl-tetralin-1-yl]phenoxy]pentyl]piperazin-1-yl]-4-[2-(2-methoxyethoxy)ethoxy]-1-oxo-isoindolin-2-yl]piperidine-2,6-dione]: the half-maximal inhibitory concentration (IC50) in experiment [1] is 1.42 nM. For the same compound, in experiment [2], the Dmax was no less than 75% and the half-maximal degradation concentration (DC50) is less than 1 nM.

In the case of `COCCOCCOc1c(N2CCN(CC3CCN(c4ccc([C@H]5c6ccc(O)cc6CC[C@H]5c5ccccc5)cc4)CC3)CC2)ccc2c1CN(C1CCC(=O)NC1=O)C2=O` (stereo partly drawn) [compound 5, 3-(5-{4-[(l-{4-[(1S,2R)-6-hydroxy-2-phenyl-1,2,3,4-tetrahydronaphthalen-1-yl]phenyl}piperidin-4-yl)methyl]piperazin-1-yl}-4-[2-(2-methoxyethoxy)ethoxy]-1-oxo-2,3-dihydro-1H-isoindol-2-yl)piperidine-2,6-dione], the half-maximal inhibitory concentration (IC50) in experiment [1] is greater than 300 nM. Further, the maximal degradation (Dmax) in experiment [2] is less than 50%.

For `COCCOCCOc1c(N2CCN(CC3CCN(c4ccc([C@@H]5c6ccc(O)cc6CC[C@@H]5c5ccccc5)cc4)CC3)CC2)ccc2c1CN(C1CCC(=O)NC1=O)C2=O` (stereo partly drawn) [compound 6, 3-(5-{4-[(1-{4-[(1R,2S)-6-hydroxy-2-phenyl-1,2,3,4-tetrahydronaphthalen-l-yl]phenyl}piperidin-4-yl)methyl]piperazin-1-yl}-4-[2-(2-methoxyethoxy)ethoxy]-1-oxo-2,3-dihydro-1H-isoindol-2-yl)piperidine-2,6-dione], the IC50 in experiment [1] was found to be 2.18 nM. Also, in experiment [2], the Dmax was less than 50%.

In the case of `COCCOCCOc1c(CCN2CCCN(CCCCOc3ccc([C@H]4c5ccc(O)cc5CC[C@H]4c4ccccc4)cc3)CC2)ccc2c1CN([C@H]1CCC(=O)NC1=O)C2=O` [compound 7, (3S)-3-(5-{2-[4-(4-{4-[(1S,2R)-6-hydroxy-2-phenyl-1,2,3,4-tetrahydronaphthalen-1-yl]phenoxy}butyl)-1,4-diazepan-1-yl]ethyl}-4-[2-(2-methoxyethoxy)ethoxy]-1-oxo-2,3-dihydro-1H-isoindol-2-yl)piperidine-2,6-dione], the IC50 in experiment [1] came to 102 nM. For the same compound, in experiment [2], the Dmax lay within 50 to 75% and the DC50 is no less than 100 nM.

For the compound `COCCOCCOc1c(CCN2CCCN(CCCCOc3ccc([C@@H]4c5ccc(O)cc5CC[C@@H]4c4ccccc4)cc3)CC2)ccc2c1CN([C@H]1CCC(=O)NC1=O)C2=O` [compound 8, (3S)-3-[5-[2-[4-(4-[4-[(1R,2S)-6-hydroxy-2-phenyl-tetralin-1-yl]phenoxy]butyl]-1,4-diazepan-1-yl]ethyl]-4-[2-(2-methoxyethoxy)ethoxy]-1-oxo-isoindolin-2-yl]piperidine-2,6-dione], the IC50 in experiment [1] stood at 0.34 nM. In experiment [2], the Dmax was 50 to 75% and the half-maximal degradation concentration (DC50) was 1 to 10 nM.

Consider `COc1cc(N2CCN(CCC3CCN(c4ccc([C@H]5c6ccc(O)cc6CC[C@H]5c5ccccc5)cc4)CC3)CC2)cc2c1C(=O)N(C1CCC(=O)NC1=O)C2` (stereo partly drawn) [compound 9, 3-(5-{4-[2-(1-{4-[(1S,2R)-6-hydroxy-2-phenyl-1,2,3,4-tetrahydronaphthalen-1-yl]phenyl}piperidin-4-yl)ethyl]piperazin-1-yl}-7-methoxy-1-oxo-2,3-dihydro-1H-isoindol-2-yl)piperidine-2,6-dione], for which, in experiment [1], the IC50 was greater than 300 nM. Also, in experiment [2], the maximal degradation (Dmax) was in the range of 50 to 75% and the DC50 was no less than 100 nM.

As to `COc1cc(N2CCN(CCC3CCN(c4ccc([C@@H]5c6ccc(O)cc6CC[C@@H]5c5ccccc5)cc4)CC3)CC2)cc2c1C(=O)N(C1CCC(=O)NC1=O)C2` (stereo partly drawn) [compound 10, 3-[5-[4-[2-[1-[4-[(1R,2S)-6-hydroxy-2-phenyl-tetralin-1-yl]phenyl]-4-piperidyl]ethyl]piperazin-1-yl]-7-methoxy-1-oxo-isoindolin-2-yl]piperidine-2,6-dione], the concentration for half-maximal inhibition (IC50) in experiment [1] turned out to be 0.86 nM. Moreover, in experiment [2], the Dmax is no less than 75% and the half-maximal degradation concentration (DC50) lay in the range of 1 to 10 nM.

`COc1cc(N2CCN(CC3CCN(c4ccc([C@H]5c6ccc(O)cc6CC[C@H]5c5ccccc5)cc4)CC3)CC2)cc2c1C(=O)N(C1CCC(=O)NC1=O)C2` (some centres unmarked) [compound 31]: the Dmax in experiment [2] was less than 50%.

(Values after US12239711B2, “Cereblon ligands and bifunctional compounds comprising the same” (Arvinas Operations, Inc., priority 2014, dated 2025).)
